The source of these data is patent publication US20230014907A1, “INHIBITORS OF APOL1 AND METHODS OF USING SAME” (Vertex Pharmaceuticals Incorporated, priority 2020, published 2023).

In this experiment the target is T1, G1 APOL1 (Homo sapiens, UniProt O14791, I384M/S342G).
T1 construct: expressed in transfected cells
T1 sequence (O14791 28-398 S342G/I384M): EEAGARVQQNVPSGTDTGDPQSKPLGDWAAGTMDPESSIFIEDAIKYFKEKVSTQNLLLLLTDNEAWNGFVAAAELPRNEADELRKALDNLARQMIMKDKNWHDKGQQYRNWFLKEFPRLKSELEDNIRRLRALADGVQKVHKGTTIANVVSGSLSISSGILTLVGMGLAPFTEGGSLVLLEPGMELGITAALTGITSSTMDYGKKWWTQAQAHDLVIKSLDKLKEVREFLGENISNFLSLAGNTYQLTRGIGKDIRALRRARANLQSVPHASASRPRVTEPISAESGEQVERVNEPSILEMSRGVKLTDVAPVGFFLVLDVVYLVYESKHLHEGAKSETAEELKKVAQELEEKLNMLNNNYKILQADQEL
Briefly: Acute APOL1 Thallium Assay with Inducible Stable Clones of HEK 293 Cells. It counts as cell-based. Conditions: HEK 293 inducible stable clones, G1 APOL1; read-out: Thallium Assay (IC50). The method, boiled down:
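HEK293 T-Rex cells with a stable tetracycline-inducible G1 APOL1 construct (clone DC3.25) were induced with tetracycline at plating, 26000 cells per well, then incubated at 37° C. They were loaded with an AM-ester thallium-sensitive dye and stimulated with Tl+. The fluorescence rise measured Tl+ influx through APOL1 pores.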
For the compound `O=C1CCC[C@@H](C(=O)NCCc2c(-c3ccc(F)cc3)[nH]c3c(F)cc(F)cc23)N1` [Compound 329], the IC50 was greater than 1000 nM.

As for `O=C(NCCc1c(-c2ccc(F)cc2)[nH]c2c(F)cc(F)cc12)c1cncc(F)c1` [Compound 377], the IC50 was greater than 1000 nM.

For `OC1(CC#Cc2c(-c3ccc(F)cc3)[nH]c3c(F)cc(F)cc23)COC1` [Compound 524, 3-[3-[5,7-difluoro-2-(4-fluorophenyl)-1H-indol-3-yl]prop-2-ynyl]oxetan-3-ol], the IC50 was greater than 1000 nM.

As for `CC(C)C(CO)NC(=O)OCCc1c(-c2ccc(F)cc2)[nH]c2c(F)cc(F)cc12` (stereo not shown) [Compound 467], the concentration for half-maximal inhibition (IC50) was 250 to 1000 nM.

Turning to `C[C@@H](O)CNC(=O)OCCc1c(-c2ccc(F)cc2)[nH]c2c(F)cc(F)cc12` [Compound 450], the IC50 was less than 250 nM.

Take `O=C(NC[C@H](O)CO)OCCc1c(-c2ccc(F)cc2)[nH]c2c(F)cc(F)cc12` [Compound 470]: the IC50 fell in the range of 250 to 1000 nM.

On to `O=C1N[C@@H](C(=O)NCCc2c(-c3ccc(F)cc3)[nH]c3c(F)cc(F)cc23)CO1` [Compound 306, (4R)—N-[2-[5,7-difluoro-2-(4-fluorophenyl)-1H-indol-3-yl]ethyl]-2-oxo-oxazolidine-4-carboxamide], for which the half-maximal inhibitory concentration (IC50) is greater than 1000 nM.

For the compound `CC(C)(C#N)C(=O)NCCc1c(-c2ccc(F)cc2)[nH]c2c(F)cc(F)cc12` [Compound 411], the IC50 was in the range of 250 to 1000 nM.

Turning to `C[C@H](NC(=O)OC(C)(C)C)C(=O)NCCc1c(-c2ccc(F)cc2)[nH]c2c(F)cc(F)cc12` [Compound 313], the IC50 is greater than 1000 nM.

Consider `CN(C[C@H](O)CO)C(=O)OCCc1c(-c2ccc(F)cc2)[nH]c2c(F)cc(F)cc12` [Compound 482], for which the IC50 is greater than 1000 nM.

Consider `O=C(CCc1c(-c2ccc(F)cc2)[nH]c2c(F)cc(Cl)cc12)NCCCO` [Compound 209], for which the IC50 is greater than 1000 nM.

In the case of `O=C(COc1cccnc1)NCCc1c(-c2ccc(F)cc2)[nH]c2c(F)cc(F)cc12` [Compound 373], the IC50 was greater than 1000 nM.

On to `C[C@H](O)CC(=O)NCCc1c(-c2ccc(F)cc2)[nH]c2c(F)cc(F)cc12` [Compound 356], for which the IC50 is greater than 1000 nM.

With `O=C(NCCc1c(-c2ccc(F)cc2)[nH]c2c(F)cc(F)cc12)C1CCCCC1O` (stereo not shown) [Compound 326], the IC50 lay within 250 to 1000 nM.

On to `O=C1NCCCC1C(=O)NCCc1c(-c2ccc(F)cc2)[nH]c2c(F)cc(F)cc12` (stereo not shown) [Compound 330], for which the IC50 is greater than 1000 nM.

In the case of `CCC(O)CNC(=O)OCCc1c(-c2ccc(F)cc2)[nH]c2c(F)cc(F)cc12` (stereo not shown) [Compound 472], the concentration for half-maximal inhibition (IC50) was 250 to 1000 nM.

Turning to `O=C(CCc1c(-c2ccc(F)cc2)[nH]c2c(F)cc(Cl)cc12)NC(CO)(CO)CO` [Compound 195], the IC50 fell in the range of 250 to 1000 nM.

Consider `O=C(NC1(CO)CCC1)OCCc1c(-c2ccc(F)cc2)[nH]c2c(F)cc(F)cc12` [Compound 436], for which the 50% inhibitory concentration (IC50) was less than 250 nM.

`C[C@@H](CO)NC(=O)CCCc1c(-c2ccc(F)cc2)[nH]c2c(F)cc(F)cc12` [Compound 240]: the IC50 was in the range of 250 to 1000 nM.

For the compound `O=C(CCc1c(-c2ccc(F)cc2)[nH]c2c(F)cc(Cl)cc12)NC[C@@H](O)CO` [Compound 210], the IC50 was greater than 1000 nM.

Turning to `COC[C@H](C)NC(=O)OCCc1c(-c2ccc(F)cc2)[nH]c2c(F)cc(F)cc12` [Compound 444], the IC50 was less than 250 nM.

Turning to `NC(=O)C1(NC(=O)OCCc2c(-c3ccc(F)cc3)[nH]c3c(F)cc(F)cc23)CC1` [Compound 473], the IC50 is 250 to 1000 nM.

`Cc1cc(F)c2[nH]c(-c3ccc(F)cc3)c(CCC(=O)NC(CO)CO)c2c1` [Compound 219]: the IC50 was greater than 1000 nM.

Turning to `CNCCc1c(-c2ccc(F)cc2)[nH]c2c(F)cc(F)cc12` [Compound 428, 2-[5,7-difluoro-2-(4-fluorophenyl)-1H-indol-3-yl]-N-methyl-ethanamine], the IC50 is greater than 1000 nM.

Turning to `CC1(O)CC(NC(=O)OCCc2c(-c3ccc(F)cc3)[nH]c3c(F)cc(F)cc23)C1` (mixture of isomers) [Compound 495], the IC50 is greater than 1000 nM.

As to `O=C(NCCc1c(-c2ccc(F)cc2)[nH]c2c(F)cc(F)cc12)N[C@H]1CCNC1=O` [Compound 277], the IC50 was greater than 1000 nM.

As to `CO[C@H]1C[C@@H](NC(=O)OCCc2c(-c3ccc(F)cc3)[nH]c3c(F)cc(F)cc23)C1` [Compound 496], the IC50 is greater than 1000 nM.

On to `O=C(O)CNC(=O)NCCc1c(-c2ccc(F)cc2)[nH]c2c(F)cc(F)cc12` [Compound 285], for which the IC50 is greater than 1000 nM.

As for `O=C(NCC1(O)CCC1)OCCc1c(-c2ccc(F)cc2)[nH]c2c(F)cc(F)cc12` [Compound 486], the IC50 is greater than 1000 nM.

`O=C(NCCc1c(-c2ccc(F)cc2)[nH]c2c(F)cc(F)cc12)c1cccnc1` [Compound 401]: the IC50 is greater than 1000 nM.

Regarding `C=CC(=O)NCCc1c(-c2ccc(F)cc2)[nH]c2c(F)cc(F)cc12` [Compound 417], the IC50 was greater than 1000 nM.

Consider `O=C(CC1CC(=O)NC(=O)C1)NCCc1c(-c2ccc(F)cc2)[nH]c2c(F)cc(F)cc12` [Compound 318], for which the IC50 is greater than 1000 nM.

`CN(C)S(=O)(=O)NCCc1c(-c2ccc(F)cc2)[nH]c2c(F)cc(F)cc12` [Compound 425]: the IC50 was greater than 1000 nM.

As to `O=C(NC1(CO)CC1)OCCc1c(-c2ccc(F)cc2)[nH]c2c(F)cc(F)cc12` [Compound 438], the IC50 was less than 250 nM.

As for `CN1CC(NC(=O)OCCc2c(-c3ccc(F)cc3)[nH]c3c(F)cc(F)cc23)CC1=O` (stereo not shown) [Compound 494], the IC50 was greater than 1000 nM.

In the case of `O=C(NCCc1c(-c2ccc(F)cc2)[nH]c2c(F)cc(F)cc12)N[C@@H]1CC[C@H](O)C1` [Compound 272], the IC50 was greater than 1000 nM.

For the compound `O=C(NCCc1c(-c2ccc(F)cc2)[nH]c2c(F)cc(F)cc12)C(O)CO` (stereo not shown) [Compound 310], the IC50 fell in the range of 250 to 1000 nM.

`O=C(NCCc1c(-c2ccc(F)cc2)[nH]c2c(F)cc(F)cc12)NCC1(CO)CC1` [Compound 276]: the IC50 was greater than 1000 nM.

With `CC(CCO)NC(=O)OCCc1c(-c2ccc(F)cc2)[nH]c2c(F)cc(F)cc12` (racemic) [Compound 457], the IC50 fell in the range of 250 to 1000 nM.

As for `CC(C)(O)CNC(=O)NCCc1c(-c2ccc(F)cc2)[nH]c2c(F)cc(F)cc12` [Compound 279], the half-maximal inhibitory concentration (IC50) is greater than 1000 nM.

`O=C1CC(C(=O)NCCc2c(-c3ccc(F)cc3)[nH]c3c(F)cc(F)cc23)NC(=O)N1` (stereo not shown) [Compound 309]: the IC50 was greater than 1000 nM.

On to `C[C@@H]1NC(=O)[C@H]1NC(=O)CCc1c(-c2ccc(F)cc2)[nH]c2c(F)cc(F)cc12` [Compound 96], for which the half-maximal inhibitory concentration (IC50) fell in the range of 250 to 1000 nM.

With `N#CCC(=O)NCCc1c(-c2ccc(F)cc2)[nH]c2c(F)cc(F)cc12` [Compound 416], the IC50 was greater than 1000 nM.

As to `O=C(N[C@H]1CCOC1)OCCc1c(-c2ccc(F)cc2)[nH]c2c(F)cc(F)cc12` [Compound 469], the IC50 was 250 to 1000 nM.

For `O=C1CC(NC(=O)CCCc2c(-c3ccc(F)cc3)[nH]c3c(F)cc(F)cc23)CN1` (stereo not shown) [Compound 253], the IC50 is greater than 1000 nM.

On to `Cn1cnc(CNC(=O)OCCc2c(-c3ccc(F)cc3)[nH]c3c(F)cc(F)cc23)c1` [Compound 478], for which the IC50 is greater than 1000 nM.

Regarding `CC(C)(C)OC(=O)NCC(=O)NCCc1c(-c2ccc(F)cc2)[nH]c2c(F)cc(F)cc12` [Compound 317], the IC50 was greater than 1000 nM.

Take `Cc1cc(F)c2[nH]c(-c3ccc(F)cc3)c(CCC(=O)NC(C#N)CO)c2c1` (stereo not shown) [Compound 215]: the IC50 lay in the range of 250 to 1000 nM.

`O=C(CCc1c(-c2ccc(F)cc2)[nH]c2c(F)cc(F)cc12)N[C@H]1C[C@H](O)C1` [Compound 159]: the 50% inhibitory concentration (IC50) is greater than 1000 nM.

With `O=C(NCCc1c(-c2ccc(F)cc2)[nH]c2c(F)cc(F)cc12)C(F)F` [Compound 414], the concentration for half-maximal inhibition (IC50) was greater than 1000 nM.

Regarding `COC1CC1NC(=O)OCCc1c(-c2ccc(F)cc2)[nH]c2c(F)cc(F)cc12` (stereo not shown) [Compound 479], the IC50 was greater than 1000 nM.

For the compound `O=C(CCc1c(-c2ccc(F)cc2)[nH]c2c(F)cc(Cl)cc12)NCCO` [Compound 199], the half-maximal inhibitory concentration (IC50) was 250 to 1000 nM.

On to `Cn1cc(CNC(=O)OCCc2c(-c3ccc(F)cc3)[nH]c3c(F)cc(F)cc23)nn1` [Compound 490], for which the IC50 was greater than 1000 nM.

In the case of `CC(C)(O)C(=O)NCCc1c(-c2ccc(F)cc2)[nH]c2c(F)cc(F)cc12` [Compound 355], the IC50 is greater than 1000 nM.

Consider `O=C(CCc1c(-c2ccccc2)[nH]c2ccc(F)cc12)N[C@@H](CO)C(F)F` [Compound 235, N-[(1S)-2,2-difluoro-1-(hydroxymethyl)ethyl]-3-(5-fluoro-2-phenyl-1H-indol-3-yl)propanamide], for which the half-maximal inhibitory concentration (IC50) was less than 250 nM.

As for `O=C(NCC(F)F)OCCc1c(-c2ccc(F)cc2)[nH]c2c(F)cc(F)cc12` [Compound 449], the IC50 was less than 250 nM.

As for `COCC1(CNC(=O)NCCc2c(-c3ccc(F)cc3)[nH]c3c(F)cc(F)cc23)CC1` [Compound 292], the IC50 is greater than 1000 nM.

Regarding `Cc1ccn(CC(=O)NCCc2c(-c3ccc(F)cc3)[nH]c3c(F)cc(F)cc23)n1` [Compound 378], the IC50 was greater than 1000 nM.

Take `NC(=O)C1(NC(=O)CCc2c(-c3ccc(F)cc3)[nH]c3c(F)cc(F)cc23)CC1` [Compound 107]: the IC50 lay in the range of 250 to 1000 nM.

In the case of `O=C(NCCc1c(-c2ccc(F)cc2)[nH]c2c(F)cc(F)cc12)NCCS(=O)(=O)O` [Compound 263], the IC50 was greater than 1000 nM.

On to `O=C(CNC(=O)NCCc1c(-c2ccc(F)cc2)[nH]c2c(F)cc(F)cc12)NO` [Compound 260], for which the concentration for half-maximal inhibition (IC50) is greater than 1000 nM.
